Data from the NIST ThermoML archive (doi:10.1021/je049960h).

Test: xn = mol fraction of the nth substance listed
Settings: 101.3 kPa, Liquid; for viscosity: Capillary tube (Ostwald / Ubbelohde) method; for mass density: Pycnometric method; for thermal conductivity: Hot wire method

CC(O)CO (stereo unspecified) [1,2-propanediol] + O
Settings	mass density [kg/m3]	thermal conductivity [W/m/K]	viscosity [mPa·s]
296.65 K, x1 = 0.25	1040	–	7.39
296.8 K, x1 = 0.75	1038	–	32.4
297.05 K, x1 = 0.5	1042	–	17.5
298.5 K, x1 = 0.75	–	0.212	–
298.9 K, x1 = 0.5	–	0.243	–
299.6 K, x1 = 0.25	–	0.322	–
313.05 K, x1 = 0.25	1028	–	3.9
313.05 K, x1 = 0.5	1029	–	8.47
313.05 K, x1 = 0.75	1026	–	14.4
322.1 K, x1 = 0.25	–	0.337	–
323.7 K, x1 = 0.75	–	0.214	–
324.2 K, x1 = 0.5	–	0.25	–
333.1 K, x1 = 0.25	1013	–	2.12
333.1 K, x1 = 0.5	1013	–	4.14
333.1 K, x1 = 0.75	1010	–	6.46
347.2 K, x1 = 0.25	–	0.348	–
348.2 K, x1 = 0.75	–	0.215	–
349.1 K, x1 = 0.5	–	0.254	–
353.05 K, x1 = 0.25	996.5	–	1.32
353.05 K, x1 = 0.5	996.8	–	–
353.05 K, x1 = 0.75	993.8	–	3.45
353.1 K, x1 = 0.5	–	–	2.36
363.3 K, x1 = 0.25	988	–	1.09
363.35 K, x1 = 0.75	985.1	–	2.66
363.4 K, x1 = 0.5	987.9	–	1.84
372.1 K, x1 = 0.25	–	0.353	–
372.1 K, x1 = 0.5	–	0.255	–
372.8 K, x1 = 0.75	–	0.215	–
373.45 K, x1 = 0.25	979.3	–	0.915
378.35 K, x1 = 0.75	971.6	–	1.87
381.55 K, x1 = 0.25	971.3	–	–
383.5 K, x1 = 0.5	970.3	–	1.22
384.15 K, x1 = 0.25	–	–	0.778
388.5 K, x1 = 0.75	963.2	–	1.52
390.55 K, x1 = 0.25	963.4	–	–
394.55 K, x1 = 0.25	–	–	0.657
395.75 K, x1 = 0.5	958.1	–	–
396 K, x1 = 0.75	–	0.214	–
396.4 K, x1 = 0.25	–	0.353	–
397.1 K, x1 = 0.5	–	0.255	–
398.3 K, x1 = 0.75	954.2	–	1.27
398.75 K, x1 = 0.5	–	–	0.952
407.45 K, x1 = 0.5	947.1	–	–
407.75 K, x1 = 0.25	947.5	–	–
408.15 K, x1 = 0.75	944.7	–	1.08
411.45 K, x1 = 0.5	–	–	0.793
411.75 K, x1 = 0.25	–	–	0.525
411.75 K, x1 = 0.75	940.7	–	–
420.2 K, x1 = 0.5	–	0.253	–
420.4 K, x1 = 0.25	–	0.347	–
420.8 K, x1 = 0.75	–	0.212	–
424.55 K, x1 = 0.25	930.2	–	–
424.95 K, x1 = 0.5	929.6	–	–
428.15 K, x1 = 0.75	924.7	–	–
428.95 K, x1 = 0.5	–	–	0.618
429.55 K, x1 = 0.25	–	–	0.426
439.95 K, x1 = 0.5	914.7	–	–
440.4 K, x1 = 0.25	–	0.338	–
440.8 K, x1 = 0.5	–	0.249	–
441.45 K, x1 = 0.75	912.7	–	–
442 K, x1 = 0.75	–	0.21	–
443.95 K, x1 = 0.5	–	–	0.517
444.55 K, x1 = 0.25	908.3	–	–
449.55 K, x1 = 0.25	–	–	0.344

CC(O)COC(C)COC(C)CO (stereo unspecified) [2-[2-(2-hydroxypropoxy)propoxy]-1-propanol] + O
Settings	mass density [kg/m3]	thermal conductivity [W/m/K]	viscosity [mPa·s]
294.8 K, x1 = 0.5	1028	–	66.6
295.35 K, x1 = 0.75	1021	–	71.2
295.4 K, x1 = 0.25	1037	–	36.7
297.3 K, x1 = 0.25	–	0.215	–
297.7 K, x1 = 0.75	–	0.157	–
298.1 K, x1 = 0.5	–	0.174	–
313.05 K, x1 = 0.25	1023	–	14.2
313.05 K, x1 = 0.5	1013	–	22.4
313.05 K, x1 = 0.75	1007	–	24.6
324.3 K, x1 = 0.25	–	0.22	–
325.2 K, x1 = 0.75	–	0.156	–
325.8 K, x1 = 0.5	–	0.174	–
333.05 K, x1 = 0.25	1006	–	6.27
333.1 K, x1 = 0.5	996.8	–	9.12
333.1 K, x1 = 0.75	990.4	–	9.92
349.1 K, x1 = 0.75	–	0.156	–
349.7 K, x1 = 0.25	–	0.223	–
350.2 K, x1 = 0.5	–	0.175	–
353.05 K, x1 = 0.25	989	–	3.36
353.05 K, x1 = 0.5	979.9	–	4.5
353.1 K, x1 = 0.75	973.7	–	4.93
368.25 K, x1 = 0.25	975.3	–	2.3
368.25 K, x1 = 0.5	966.8	–	2.96
368.25 K, x1 = 0.75	960.5	–	3.21
374.1 K, x1 = 0.25	–	0.224	–
375.1 K, x1 = 0.5	–	0.172	–
375.5 K, x1 = 0.75	–	0.155	–
378.15 K, x1 = 0.25	966.7	–	1.84
378.5 K, x1 = 0.5	957.4	–	2.32
378.55 K, x1 = 0.75	951.3	–	2.53
388.4 K, x1 = 0.5	947.8	–	1.88
388.4 K, x1 = 0.75	942.4	–	2.03
393.05 K, x1 = 0.25	953	–	–
394.05 K, x1 = 0.5	944	–	–
394.55 K, x1 = 0.25	–	–	1.35
395.15 K, x1 = 0.5	–	–	1.67
398.35 K, x1 = 0.75	933.3	–	1.66
398.9 K, x1 = 0.25	–	0.222	–
399 K, x1 = 0.5	–	0.172	–
399.4 K, x1 = 0.75	–	0.152	–
408.3 K, x1 = 0.75	924.3	–	1.44
408.65 K, x1 = 0.5	930.6	–	–
409.05 K, x1 = 0.25	936.6	–	–
411.65 K, x1 = 0.5	–	–	1.26
412.05 K, x1 = 0.25	–	–	1.01
412.45 K, x1 = 0.75	–	–	1.31
414.15 K, x1 = 0.75	918.6	–	–
422.5 K, x1 = 0.75	–	0.15	–
423 K, x1 = 0.25	–	0.22	–
424.5 K, x1 = 0.5	–	0.168	–
426.65 K, x1 = 0.25	918.9	–	–
426.75 K, x1 = 0.5	913.2	–	–
428.25 K, x1 = 0.75	–	–	1.02
429.25 K, x1 = 0.75	904.7	–	–
429.65 K, x1 = 0.25	–	–	0.785
429.75 K, x1 = 0.5	–	–	0.952
445 K, x1 = 0.75	889.5	–	–
446.15 K, x1 = 0.25	897.8	–	–
446.55 K, x1 = 0.75	–	–	0.791
446.85 K, x1 = 0.5	892.5	–	–
448.2 K, x1 = 0.25	–	0.213	–
448.3 K, x1 = 0.5	–	0.164	–
449 K, x1 = 0.75	–	0.144	–
449.15 K, x1 = 0.25	–	–	0.615
449.85 K, x1 = 0.5	–	–	0.738
